For one series, the target named is T1, AT1a receptor (Rattus norvegicus, UniProt P25095).
T1 construct: expressed in transfected cells
T1 sequence (P25095 1-359): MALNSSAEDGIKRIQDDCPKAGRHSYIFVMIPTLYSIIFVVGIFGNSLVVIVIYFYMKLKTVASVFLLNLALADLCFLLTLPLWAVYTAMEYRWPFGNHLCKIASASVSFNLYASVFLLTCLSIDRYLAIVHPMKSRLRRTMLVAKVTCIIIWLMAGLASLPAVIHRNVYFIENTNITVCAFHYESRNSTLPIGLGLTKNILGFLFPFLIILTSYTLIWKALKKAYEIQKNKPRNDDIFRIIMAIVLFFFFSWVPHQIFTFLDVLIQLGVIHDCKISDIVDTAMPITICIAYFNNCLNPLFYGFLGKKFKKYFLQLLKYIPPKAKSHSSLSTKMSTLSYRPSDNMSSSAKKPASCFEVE
Put plainly: Ang peptide radioligand binding assay, displacement of [125I]-Ang-II (AT1R/HEK). To be noted: competition with [125I]-Ang-II, HEK-293 cells stably expressing AT1a receptor, 90 min on ice, log-logit analysis; average of n studies. How it is done:
HEK-293 cells stably expressing AT1a receptor were maintained and characterized as previously described. HEK-293 cells expressing AT2 receptors were transfected with pcDNA3.1 plasmid containing human AT2 receptor DNA using Lipofectamine 2000 at 1 µg DNA/well of a six-well plate according to manufacturer's protocol (Invitrogen, Carlsbad, CA). Transfected cells were maintained in Minimal Essential Medium (MEM) containing 10% fetal bovine serum and 1% antibiotic/fungizone/antimycotic with addition of geneticin (400 µg/ml) for stable transfectants. Confluent monolayers cells were deprived of serum (0.1% bovine serum albumin) for 2–24 hours before assay. […] After 90 min of incubation on ice, cells were gently washed 3 times with ice cold 0.9% sodium chloride followed by solubilization of the cell monolayer with 0.1 N NaOH/0.1% SDS. The solubilized sample was placed into a gamma counter for determination of cell-associated radioactivity. Log-logit analysis of the obtained competition curves was performed for determination of IC50 values.

The subject of series [1] is kidney homogenates of uni-nephrectomized FHH rats. Put plainly: Intrarenal Ang peptide content by parallel reaction monitoring (LC/MS/MS), late disease protocol. To be noted: kidneys harvested at sacrifice, late disease model; chronic iv infusion 100-400 ng/kg/min; whole kidney homogenate; LC-MS/MS (PRM). Type of series: in vivo, rat. How it is done:
Stable isotope labeled peptide standards (SIS, ^13C ^15N, New England Peptide, Gardner, MA) were resuspended in water to 1 nM and stored at −80C in Lo-Bind microcentrifuge tubes (Eppendorf) with the exception of Ang-I, which was resuspended in 30% acetonitrile and stored at 0.4 nM final concentration. Ang-(1-7), Ang-II, and Ang-(2-10) contained isotopically labeled valine. Ang-I contained isotopically labeled valine and proline. Peptide concentration was determined by amino acid analysis.
Tissues were stored frozen at −80°C in 15 ml Falcon tubes. Whole kidney tissues were submerged in liquid nitrogen for 5 minutes and kidney tissue was processed in a biopulverizer (MidSci, St. Louis, MO) to a fine powder. Pulverized tissue was transferred to a 5-ml glass dounce with a chilled spatula. Approximately 200 mg of tissue was used for peptide extraction. Four volumes of ice cold methanol (Burdick and Jackson, LC-MS Grade) were added to the tissue followed by a volume of water (Burdick and Jackson, LC-MS Grade) containing O-phenanthroline (Sigma Aldrich) and SIS peptides resulting in a final concentration of 1 mM and 1.8 nM, respectively. Tissue was homogenized in the dounce on ice for 1 minute. An aliquot of tissue homogenate was transferred to a 2-ml lo-bind microcentrifuge tube and stored at −20°C for at least 1 hour. Samples were further centrifuged for 10 minutes at 10,000×g at 4°C. An aliquot equal to approximately 60% of the total sample volume was transferred to a lo-bind tube equivalent to 100 mg of tissue (wet weight). From this aliquot, a volume equal to the wet weight of the starting tissue was transferred to a new lo-bind tube and diluted with ice cold water so that the final concentration of methanol was 40%. […] The filtrate volume was estimated by variable volume pipet and recorded to determine the fraction of starting volume collected. […] Declustering potential was set at 80 V. For parallel reaction monitoring (PRM) quantification, the dominant charge state of each peptide was determined and collision energies were optimized manually for SIS peptides (Table 1). […]

We go through 1 sequence from article PMC4206519, “Lack of Renoprotective Effect of Chronic Intravenous Angiotensin-(1-7) or Angiotensin-(2-10) in a Rat Model of Focal Segmental Glomerulosclerosis” (PLoS ONE, 2014).

Where no end group is shown, it is not given here.

The sequence RVYIHPFHL [Ang-(2-10)] came in with an IC50 on AT1a receptor of 47.8 nM. In addition, the “intrarenal level of the exogenously administered peptide (in words)” value in series [1] is “did not lead to a significant increase”.
